Measured values as given in ChEMBL document CHEMBL1155511, “Discovery of a new potent bisamide FMS kinase inhibitor” (Bioorg Med Chem Lett, 2010).

Legend:
[1] = target: Tyrosine-protein kinase SYK (Homo sapiens) (UniProt P43405); assay: Inhibition of SYK at 1 uM
[2] = target: Insulin-like growth factor 1 receptor (Homo sapiens) (UniProt P08069); assay: Inhibition of IGF1R at 1 uM
[3] = target: T1, Vascular endothelial growth factor receptor 2 (Homo sapiens, UniProt P35968); assay: Inhibition of KDR at 1 uM
[4] = target: T2, Macrophage colony-stimulating factor 1 receptor (Homo sapiens, UniProt P07333); assay: Inhibition of FMS
[5] = target: Tyrosine-protein kinase BTK (Homo sapiens) (UniProt Q06187); assay: Inhibition of BTK at 1 uM
[6] = target: Serine/threonine-protein kinase PAK 2 (Homo sapiens) (UniProt Q13177); assay: Inhibition of PAK2 at 1 uM
[7] = target: ALK tyrosine kinase receptor (Homo sapiens) (UniProt Q9UM73); assay: Inhibition of ALK at 1 uM
[8] = target: Calcium/calmodulin-dependent protein kinase type 1 (Homo sapiens) (UniProt Q14012); assay: Inhibition of CamK1 at 1 uM
[9] = target: Serine/threonine-protein kinase PLK1 (Homo sapiens) (UniProt P53350); assay: Inhibition of PLK1 at 1 uM
[10] = target: [Pyruvate dehydrogenase (acetyl-transferring)] kinase isozyme 1, mitochondrial (Homo sapiens) (UniProt Q15118); assay: Inhibition of PDK1 at 1 uM
[11] = target: Serine/threonine-protein kinase pim-1 (Homo sapiens) (UniProt P11309); assay: Inhibition of PIM1 at 1 uM
[12] = target: Dual specificity mitogen-activated protein kinase kinase 1 (Homo sapiens) (UniProt Q02750); assay: Inhibition of MEK1 at 1 uM
[13] = target: Insulin receptor (Homo sapiens) (UniProt P06213); assay: Inhibition of IR at 1 uM
[14] = target: Proto-oncogene tyrosine-protein kinase ROS (Homo sapiens) (UniProt P08922); assay: Inhibition of ROS1 at 1 uM
[15] = target: Tyrosine-protein kinase Fyn (Homo sapiens) (UniProt P06241); assay: Inhibition of FYN at 1 uM
[16] = target: Ephrin type-A receptor 1 (Homo sapiens) (UniProt P21709); assay: Inhibition of EPHA1 at 1 uM
[17] = Inhibition of PKBalpha; conditions: concentration not given here
[18] = target: Ribosomal protein S6 kinase alpha-1 (Homo sapiens) (UniProt Q15418); assay: Inhibition of RSK1 at 1 uM
[19] = target: Tyrosine-protein kinase JAK3 (Homo sapiens) (UniProt P52333); assay: Inhibition of JAK3 at 1 uM
[20] = target: Serine/threonine-protein kinase mTOR (Homo sapiens) (UniProt P42345); assay: Inhibition of mTOR at 1 uM
[21] = target: Epidermal growth factor receptor (Homo sapiens) (UniProt P00533); assay: Inhibition of EGFR at 1 uM
[22] = target: Protein-tyrosine kinase 2-beta (Homo sapiens) (UniProt Q14289); assay: Inhibition of PYK2 at 1 uM
[23] = target: Ribosomal protein S6 kinase beta-1 (Homo sapiens) (UniProt P23443); assay: Inhibition of p70S6K at 1 uM
[24] = target: Rho-associated protein kinase 1 (Homo sapiens) (UniProt Q13464); assay: Inhibition of ROCK1 at 1 uM
[25] = target: Proto-oncogene tyrosine-protein kinase receptor Ret (Homo sapiens) (UniProt P07949); assay: Inhibition of RET at 1 uM
[26] = target: Tyrosine-protein kinase ABL1 (Homo sapiens) (UniProt P00519); assay: Inhibition of ABL1 at 1 uM
[27] = target: Homeodomain-interacting protein kinase 2 (Homo sapiens) (UniProt Q9H2X6); assay: Inhibition of HIPK2 at 1 uM
[28] = target: Serine/threonine-protein kinase MARK1 (Homo sapiens) (UniProt Q9P0L2); assay: Inhibition of MARK1 at 1 uM
[29] = target: Glycogen synthase kinase-3 beta (Homo sapiens) (UniProt P49841); assay: Inhibition of GSK3-beta at 1 uM
[30] = target: T1, Vascular endothelial growth factor receptor 2; assay: Inhibition of KDR
[31] = target: Tyrosine-protein kinase Tec (Homo sapiens) (UniProt P42680); assay: Inhibition of TEC at 1 uM
[32] = target: Inhibitor of nuclear factor kappa-B kinase subunit beta (Homo sapiens) (UniProt O14920); assay: Inhibition of IKK-beta at 1 uM
[33] = Inhibition of PKA at 1 uM
[34] = target: Proto-oncogene tyrosine-protein kinase Src (Homo sapiens) (UniProt P12931); assay: Inhibition of c-SRC at 1 uM
[35] = target: Tyrosine-protein kinase Lck (Homo sapiens) (UniProt P06239); assay: Inhibition of LCK at 1 uM
[36] = target: Protein kinase C alpha type (Homo sapiens) (UniProt P17252); assay: Inhibition of PKCalpha at 1 uM
[37] = target: Mast/stem cell growth factor receptor Kit (Homo sapiens) (UniProt P10721); assay: Inhibition of cKIT1 at 1 uM
[38] = target: Mitogen-activated protein kinase 14 (Homo sapiens) (UniProt Q16539); assay: Inhibition of SAPK2A at 1 uM
[39] = target: Receptor-type tyrosine-protein kinase FLT3 (Homo sapiens) (UniProt P36888); assay: Inhibition of FLT3 at 1 uM
[40] = target: T2, Macrophage colony-stimulating factor 1 receptor; assay: Inhibition of FMS at 1 uM
[41] = target: Cyclin-dependent kinase 5/CDK5 activator 1 (Homo sapiens) (UniProt Q00535+Q15078); assay: Inhibition of CDK5/p25 at 1 uM; type: protein-complex assay
[42] = target: Serine/threonine-protein kinase Chk1 (Homo sapiens) (UniProt O14757); assay: Inhibition of CHK1 at 1 uM
[43] = target: Mitogen-activated protein kinase kinase kinase 9 (Homo sapiens) (UniProt P80192); assay: Inhibition of MLK1 at 1 uM
[44] = target: Aurora kinase A (Homo sapiens) (UniProt O14965); assay: Inhibition of Aurora A at 1 uM
[45] = target: Fibroblast growth factor receptor 1 (Homo sapiens) (UniProt P11362); assay: Inhibition of FGFR1 at 1 uM
[46] = target: Mitogen-activated protein kinase 8 (Homo sapiens) (UniProt P45983); assay: Inhibition of JNK1alpha1 at 1 uM

T2 sequence (P07333 whole entry, looked up): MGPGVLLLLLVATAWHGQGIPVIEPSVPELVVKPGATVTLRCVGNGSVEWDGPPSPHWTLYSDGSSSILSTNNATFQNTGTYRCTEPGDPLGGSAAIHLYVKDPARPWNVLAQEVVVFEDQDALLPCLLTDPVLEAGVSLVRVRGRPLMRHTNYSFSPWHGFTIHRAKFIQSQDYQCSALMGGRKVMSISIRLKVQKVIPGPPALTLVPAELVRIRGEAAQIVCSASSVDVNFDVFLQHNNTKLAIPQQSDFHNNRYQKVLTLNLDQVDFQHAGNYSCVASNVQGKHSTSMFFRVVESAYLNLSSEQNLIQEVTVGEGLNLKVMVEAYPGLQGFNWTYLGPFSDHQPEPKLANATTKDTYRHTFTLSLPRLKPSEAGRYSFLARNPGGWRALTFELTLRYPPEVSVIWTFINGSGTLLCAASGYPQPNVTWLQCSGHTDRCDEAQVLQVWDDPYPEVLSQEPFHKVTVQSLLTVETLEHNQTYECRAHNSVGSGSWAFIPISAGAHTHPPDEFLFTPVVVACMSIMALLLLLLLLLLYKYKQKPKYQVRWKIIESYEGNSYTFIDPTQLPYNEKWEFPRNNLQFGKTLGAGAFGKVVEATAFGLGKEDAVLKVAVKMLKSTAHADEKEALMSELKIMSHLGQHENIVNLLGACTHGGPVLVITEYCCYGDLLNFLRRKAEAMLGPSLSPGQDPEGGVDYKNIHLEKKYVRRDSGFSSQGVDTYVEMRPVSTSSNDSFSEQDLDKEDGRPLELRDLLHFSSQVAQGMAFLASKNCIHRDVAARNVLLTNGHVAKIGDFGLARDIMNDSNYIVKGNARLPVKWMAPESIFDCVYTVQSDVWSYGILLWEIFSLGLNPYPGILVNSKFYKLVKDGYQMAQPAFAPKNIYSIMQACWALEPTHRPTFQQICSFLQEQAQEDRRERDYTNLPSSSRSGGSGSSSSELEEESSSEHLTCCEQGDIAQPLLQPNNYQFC
T1 sequence (P35968 whole entry): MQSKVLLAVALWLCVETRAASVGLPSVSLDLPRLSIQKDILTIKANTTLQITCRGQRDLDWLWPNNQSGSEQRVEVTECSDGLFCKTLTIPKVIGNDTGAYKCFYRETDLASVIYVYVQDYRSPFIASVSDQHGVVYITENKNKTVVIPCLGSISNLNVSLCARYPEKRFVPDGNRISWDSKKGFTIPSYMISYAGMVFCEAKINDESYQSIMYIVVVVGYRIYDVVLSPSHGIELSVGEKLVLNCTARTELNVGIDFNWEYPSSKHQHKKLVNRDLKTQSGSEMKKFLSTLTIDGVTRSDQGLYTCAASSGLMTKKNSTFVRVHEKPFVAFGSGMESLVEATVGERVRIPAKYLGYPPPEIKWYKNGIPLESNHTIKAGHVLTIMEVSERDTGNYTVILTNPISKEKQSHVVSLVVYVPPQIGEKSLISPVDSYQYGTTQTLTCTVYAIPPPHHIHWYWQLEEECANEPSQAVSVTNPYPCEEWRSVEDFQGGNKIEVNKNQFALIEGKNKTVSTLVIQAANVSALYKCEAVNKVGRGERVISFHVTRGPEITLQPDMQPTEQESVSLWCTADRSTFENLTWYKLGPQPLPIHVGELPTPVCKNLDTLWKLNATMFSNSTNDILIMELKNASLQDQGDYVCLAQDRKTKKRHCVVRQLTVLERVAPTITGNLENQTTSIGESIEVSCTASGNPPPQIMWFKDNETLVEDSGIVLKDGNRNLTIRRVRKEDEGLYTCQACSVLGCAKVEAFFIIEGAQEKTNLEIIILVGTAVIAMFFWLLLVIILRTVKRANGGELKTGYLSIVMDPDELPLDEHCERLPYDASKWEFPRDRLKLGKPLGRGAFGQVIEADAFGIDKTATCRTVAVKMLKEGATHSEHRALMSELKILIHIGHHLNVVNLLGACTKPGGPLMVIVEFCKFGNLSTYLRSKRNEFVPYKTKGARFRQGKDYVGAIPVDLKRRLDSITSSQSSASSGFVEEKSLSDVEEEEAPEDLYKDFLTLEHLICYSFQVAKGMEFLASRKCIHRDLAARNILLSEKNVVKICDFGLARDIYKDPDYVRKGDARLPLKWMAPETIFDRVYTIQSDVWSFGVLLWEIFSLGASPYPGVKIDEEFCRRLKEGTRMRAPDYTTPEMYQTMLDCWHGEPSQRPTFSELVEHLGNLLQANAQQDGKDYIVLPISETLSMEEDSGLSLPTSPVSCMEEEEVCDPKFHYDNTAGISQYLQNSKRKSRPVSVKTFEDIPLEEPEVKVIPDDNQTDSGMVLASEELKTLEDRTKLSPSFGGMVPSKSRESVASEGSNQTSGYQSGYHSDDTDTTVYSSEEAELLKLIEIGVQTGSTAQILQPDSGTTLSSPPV
Proto-oncogene tyrosine-protein kinase receptor Ret (Homo sapiens), sequence (P07949 whole entry): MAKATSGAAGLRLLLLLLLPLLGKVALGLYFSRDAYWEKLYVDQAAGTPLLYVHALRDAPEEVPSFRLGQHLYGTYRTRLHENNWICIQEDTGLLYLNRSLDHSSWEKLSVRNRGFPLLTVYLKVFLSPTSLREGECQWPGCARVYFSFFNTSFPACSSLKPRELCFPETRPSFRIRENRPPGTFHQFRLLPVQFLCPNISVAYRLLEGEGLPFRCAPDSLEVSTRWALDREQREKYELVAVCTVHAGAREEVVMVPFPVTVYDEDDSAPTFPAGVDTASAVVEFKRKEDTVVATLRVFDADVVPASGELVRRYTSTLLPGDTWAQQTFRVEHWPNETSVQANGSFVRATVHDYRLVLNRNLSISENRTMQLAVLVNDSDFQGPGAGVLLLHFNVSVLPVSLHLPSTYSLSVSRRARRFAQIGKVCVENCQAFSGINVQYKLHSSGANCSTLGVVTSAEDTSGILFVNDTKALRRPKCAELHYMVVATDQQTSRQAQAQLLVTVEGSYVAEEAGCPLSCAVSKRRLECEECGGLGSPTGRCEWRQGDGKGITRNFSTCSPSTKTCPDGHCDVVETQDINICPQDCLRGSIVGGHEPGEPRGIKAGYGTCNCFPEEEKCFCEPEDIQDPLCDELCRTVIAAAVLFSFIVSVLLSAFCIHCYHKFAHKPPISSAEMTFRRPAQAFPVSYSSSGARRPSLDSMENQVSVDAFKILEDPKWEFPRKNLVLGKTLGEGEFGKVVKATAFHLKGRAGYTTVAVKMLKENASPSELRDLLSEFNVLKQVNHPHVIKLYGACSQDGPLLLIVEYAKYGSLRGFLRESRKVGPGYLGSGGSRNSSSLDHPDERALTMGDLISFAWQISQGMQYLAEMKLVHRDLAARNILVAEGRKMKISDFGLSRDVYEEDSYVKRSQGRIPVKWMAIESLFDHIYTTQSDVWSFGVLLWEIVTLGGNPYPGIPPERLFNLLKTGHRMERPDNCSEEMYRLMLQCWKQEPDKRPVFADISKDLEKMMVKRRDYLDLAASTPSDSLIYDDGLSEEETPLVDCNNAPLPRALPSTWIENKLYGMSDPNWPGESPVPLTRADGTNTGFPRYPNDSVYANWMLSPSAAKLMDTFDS
Homeodomain-interacting protein kinase 2 (Homo sapiens), sequence (Q9H2X6 whole entry, looked up): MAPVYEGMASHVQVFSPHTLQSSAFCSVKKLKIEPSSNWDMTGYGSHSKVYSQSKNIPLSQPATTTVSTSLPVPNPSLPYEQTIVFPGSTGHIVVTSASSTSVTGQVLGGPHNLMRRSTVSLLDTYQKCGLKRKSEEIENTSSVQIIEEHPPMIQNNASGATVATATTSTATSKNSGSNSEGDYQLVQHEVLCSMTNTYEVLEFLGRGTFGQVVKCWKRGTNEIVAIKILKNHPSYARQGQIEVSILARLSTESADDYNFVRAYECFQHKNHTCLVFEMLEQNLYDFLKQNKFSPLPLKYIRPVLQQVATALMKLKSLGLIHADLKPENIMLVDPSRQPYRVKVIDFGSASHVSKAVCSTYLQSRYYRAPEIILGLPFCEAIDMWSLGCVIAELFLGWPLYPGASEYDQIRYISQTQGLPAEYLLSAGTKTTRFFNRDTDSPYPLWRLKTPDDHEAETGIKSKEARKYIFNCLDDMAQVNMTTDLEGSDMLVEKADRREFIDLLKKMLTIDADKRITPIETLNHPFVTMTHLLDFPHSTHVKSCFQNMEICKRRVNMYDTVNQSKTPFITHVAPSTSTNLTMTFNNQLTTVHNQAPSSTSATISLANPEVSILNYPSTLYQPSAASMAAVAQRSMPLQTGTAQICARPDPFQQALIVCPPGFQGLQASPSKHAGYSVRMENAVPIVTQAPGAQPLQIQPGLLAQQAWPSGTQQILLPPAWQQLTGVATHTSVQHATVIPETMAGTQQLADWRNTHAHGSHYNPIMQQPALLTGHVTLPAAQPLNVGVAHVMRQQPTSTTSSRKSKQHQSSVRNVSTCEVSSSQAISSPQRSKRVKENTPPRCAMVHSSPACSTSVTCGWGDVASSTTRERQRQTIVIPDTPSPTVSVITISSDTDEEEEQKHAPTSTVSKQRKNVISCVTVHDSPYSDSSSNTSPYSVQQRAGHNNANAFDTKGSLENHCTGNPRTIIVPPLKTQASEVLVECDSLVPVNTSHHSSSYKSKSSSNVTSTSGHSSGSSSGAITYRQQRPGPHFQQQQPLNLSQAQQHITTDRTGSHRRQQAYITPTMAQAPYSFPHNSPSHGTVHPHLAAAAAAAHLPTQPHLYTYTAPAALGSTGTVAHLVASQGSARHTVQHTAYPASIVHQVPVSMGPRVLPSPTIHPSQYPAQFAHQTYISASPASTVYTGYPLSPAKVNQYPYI
Serine/threonine-protein kinase pim-1 (Homo sapiens), sequence (P11309 whole entry, looked up): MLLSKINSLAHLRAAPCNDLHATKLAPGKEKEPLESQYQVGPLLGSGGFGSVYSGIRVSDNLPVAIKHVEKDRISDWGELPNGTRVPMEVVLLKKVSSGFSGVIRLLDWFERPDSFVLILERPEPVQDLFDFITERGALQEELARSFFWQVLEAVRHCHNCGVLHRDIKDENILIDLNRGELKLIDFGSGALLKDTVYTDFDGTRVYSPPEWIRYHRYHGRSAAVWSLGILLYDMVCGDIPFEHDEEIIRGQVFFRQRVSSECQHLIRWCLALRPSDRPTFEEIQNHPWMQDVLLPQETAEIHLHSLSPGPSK

inhibition [1]: 6%
inhibition [2]: 10%
inhibition [3]: 71%
IC50 [4]: 96 nM
inhibition [5]: 7%
inhibition [6]: 2%
inhibition [7]: 11%
inhibition [8]: -1%
inhibition [9]: 4%
inhibition [10]: -1%
inhibition [11]: 10%
inhibition [12]: 12%
inhibition [13]: 2%
inhibition [14]: 19%
inhibition [15]: 44%
inhibition [16]: 9%
inhibition [17]: 18%
inhibition [18]: 8%
inhibition [19]: 17%
inhibition [20]: -10%
inhibition [21]: 1%
inhibition [22]: 23%
inhibition [23]: 7%
inhibition [24]: 3%
inhibition [25]: 57%
inhibition [26]: 41%
inhibition [27]: 9%
inhibition [28]: -9%
inhibition [29]: 4%
IC50 [30]: 1060 nM
inhibition [31]: 14%
inhibition [32]: 23%
inhibition [33]: 16%
inhibition [34]: 10%
inhibition [35]: 33%
inhibition [36]: -5%
inhibition [37]: -2%
inhibition [38]: 25%
inhibition [39]: 16%
inhibition [40]: 90%
inhibition [41]: 8%
inhibition [42]: -8%
inhibition [43]: -1%
inhibition [44]: 21%
inhibition [45]: 6%
inhibition [46]: -1%
SMILES: O=C(Nc1cccc(-n2ccc3c(NC(=O)c4ccccc4)nccc32)c1)c1ccc(N2CCOCC2)c(C(F)(F)F)c1
